In patent publication US6147077A, “2R,4S-hydroxyitraconazole isomers” (priority 1999, dated 2000):
Converted amounts (≈) assume the structure as drawn. Read-outs that look alike come from different tables or passages of the source.

Tests used:
Candida albicans = assay: Antifungal MIC, Candida albicans; type: cell-based; settings: Candida albicans
Procedure: (§1) A 10 mL tube containing 4 mL of Sabourauds dextrose broth was inoculated with 1 colony of Candida albicans picked from a plate of pure culture. The strain was ordered from the American Type Culture Collection (ATCC). The organism was grown for 4 hours at 30° C. while shaking at 150 RPM. While the organism was growing, samples of hydroxy-itraconazoles were solubilized to a concentration of 10 mg/mL in DMSO. Each sample was then diluted 1:10 to make 1 mg/mL samples or 1000 μg/mL. These samples were then diluted by serial 2-fold dilutions to produce samples now containing 1000, 500, 250, 125, 62.5, 31.25, 15.6 μg/mL. […] At 4 hours of growth time the Candida albicans was diluted to a 0.5 McFarland standard representing about 10^5 -10^6 cells/mL and 1 μL of this inoculum placed into each test well of the microtiter dish. The dish was then covered and incubated at 30° C. for 16 hours.

cytochrome P450 3A4 [1] = target: T1, cytochrome P450 3A4 (Homo sapiens, UniProt P08684)
Procedure: (§2) The IC50 values were determined by the appearance of 6β-hydroxytestosterone after incubation with testosterone. […] Of greater clinical significance is the ratio of the IC50 for 3A4 to the MIC for C. albicans 44203.

cytochrome P450 3A4 [2] = target: T1, cytochrome P450 3A4; assay: Inhibition of cytochrome P450 3A4 (testosterone 6β-hydroxylase activity)
Procedure: as §2

Sacchromyces cerevisae = assay: Kirby-Bauer Testing, Saccharomyces cerevisiae; type: cell-based; settings: Saccharomyces cerevisiae, 10 μl of 10 mg/mL per disk, 30° C., 16 hours
Procedure: The hydroxyitraconazole isomers were tested for biological activity according three different assays.
Actively growing cultures of Candida albicans, Cryptococcus neoformens and Saccharomyces cerevisiae were prepared as described above. The cultures were diluted to a 0.5 McFarland standard and swabbed onto a 150 mm Sabouraud Dextrose agar plates. Paper disks (7 mm) were placed onto the agar plates using a disk dispenser. […] The plates were then incubated at 30° C. for 16 hours. Zones of inhibition were then measured in mm.

[3] = Water solubility of hydroxyitraconazole isomers and itraconazole; type: physicochemical; settings: water; LOD: 5000 μV*sec; order-of-magnitude accuracy below LOD; 3+4 and 11+12 ±10%
Procedure: The isomers of cis hydroxyitraconazole were tested for water solubility against a […] standard solution of hydroxyitraconazole. […] The values for 3+4 and 11+12 are barely above the LOD, giving accuracies of ±10%. In every case, solubilities were in the 10^1 to 10^2 ng/ml range.

[4] = Water solubility of hydroxyitraconazole phosphate isomers (NMG salts); type: physicochemical; settings: water; Table 8
Source text: The water solubility of the NMG salts of the phosphate esters of isomers 1, 2 and 3+4 were investigated and compared to the corresponding hydroxyitraconazole isomers 1, 2 and 3+4. The phosphate esters were as much as 10^7 times more water soluble than the corresponding hydroxyitraconazole isomer.

delayed rectifier (IK) = settings: cited from earlier work; for Effect on cardiac repolarization: Torsades de Pointes side effect
Cr. neoformens = assay: Antifungal MIC, Cr. neoformens; type: cell-based, Cryptococcus neoformens; settings: Cryptococcus; Cr. neoformens (Table 3)
Procedure: [The source words this procedure for another organism and reports this organism under the same test.] as §1

S. cerevisae = assay: Antifungal MIC, S. cerevisae; type: cell-based, Saccharomyces cerevisiae; settings: Saccharomyces cerevisiae; S. cerevisae (Table 3)
Procedure: [The source words this procedure for another organism and reports this organism under the same test.] as §1

A. fumigatis = assay: Antifungal MIC, A. fumigatis; type: cell-based; settings: A. fumigatis (Table 3)
Procedure: [The source words this procedure for another organism and reports this organism under the same test.] as §1

[5] = Candida albicans strain 44203 (Table 4), read-out: MIC

T1 sequence (P08684 whole entry): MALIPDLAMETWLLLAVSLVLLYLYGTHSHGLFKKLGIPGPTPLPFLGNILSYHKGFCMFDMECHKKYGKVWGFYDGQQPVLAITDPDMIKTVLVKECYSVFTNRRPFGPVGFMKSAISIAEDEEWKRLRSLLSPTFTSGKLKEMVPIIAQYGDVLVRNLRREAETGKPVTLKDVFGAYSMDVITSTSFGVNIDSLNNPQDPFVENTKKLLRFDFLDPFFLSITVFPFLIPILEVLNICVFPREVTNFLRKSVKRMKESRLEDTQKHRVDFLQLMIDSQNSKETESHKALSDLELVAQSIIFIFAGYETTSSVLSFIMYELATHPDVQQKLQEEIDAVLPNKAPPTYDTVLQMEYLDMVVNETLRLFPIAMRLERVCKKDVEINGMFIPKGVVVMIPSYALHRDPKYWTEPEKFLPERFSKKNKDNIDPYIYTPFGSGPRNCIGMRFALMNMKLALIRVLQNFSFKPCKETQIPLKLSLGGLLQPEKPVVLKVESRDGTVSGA

Molecule `CCC(C)n1ncn(-c2ccc(N3CCN(c4ccc(OC[C@H]5CO[C@](Cn6cncn6)(c6ccc(Cl)cc6Cl)O5)cc4)CC3)cc2)c1=O` (stereo partly drawn) [5 + 6] has an MIC (Candida albicans) of 0.156 µg/mL.
In the case of `CC(O)C(C)n1ncn(-c2ccc(N3CCN(c4ccc(OC[C@H]5CO[C@](Cn6cncn6)(c6ccc(Cl)cc6Cl)O5)cc4)CC3)cc2)c1=O` (stereo partly drawn) [Compound 3 + 4], the “Inhibition of P450 3A4 in words” value (cytochrome P450 3A4 [1]) is reported as “notably less inhibition of the P450 3A4 enzyme than the 2S,4R isomers” and the “IC50/MIC ratio in words” value (cytochrome P450 3A4 [2]; therapeutic index, 3A4 vs C. albicans 44203) is reported as “excellent results”.
Work on `CC(O)C(C)n1ncn(-c2ccc(N3CCN(c4ccc(OC[C@H]5CO[C@](Cn6cncn6)(c6ccc(Cl)cc6Cl)O5)cc4)CC3)cc2)c1=O` (stereo partly drawn) [3 + 4] yielded a zone of inhibition at 10000 µg/mL (Sacchromyces cerevisae) of 23 mm, an MIC (Candida albicans; [5]) of 0.1 µg/mL and a solubility [3] of 1.97 µg/mL. It also gave a solubility [4] of 2 µg/mL and a selectivity ratio (cytochrome P450 3A4 [2]) of 24.
For `CC(C)NCC(O)c1ccc(NS(C)(=O)=O)cc1` (stereo not drawn) [sotalol], the “Effect on cardiac repolarization” value (delayed rectifier (IK)) is listed as “prolongation of cardiac repolarization” and the “Block of delayed rectifier (IK)” value (delayed rectifier (IK)) is listed as “ability to block a cellular potassium channel called the delayed rectifier (IK)”.
Molecule `CCC(C)n1ncn(-c2ccc(N3CCN(c4ccc(OC[C@@H]5CO[C@@](Cn6cncn6)(c6ccc(Cl)cc6Cl)O5)cc4)CC3)cc2)c1=O` (stereo partly drawn) [7 + 8] has an MIC (Candida albicans) of under 0.078 µg/mL.
`CC[C@H](C)n1ncn(-c2ccc(N3CCN(c4ccc(OC[C@@H]5CO[C@@](Cn6cncn6)(c6ccc(Cl)cc6Cl)O5)cc4)CC3)cc2)c1=O` [Compound 7, reference compound] gave an MIC (Candida albicans) of under 0.078 µg/mL.
`C[C@@H](O)[C@H](C)n1ncn(-c2ccc(N3CCN(c4ccc(OC[C@@H]5CO[C@@](Cn6cncn6)(c6ccc(Cl)cc6Cl)O5)cc4)CC3)cc2)c1=O` [Compound 9] showed a zone of inhibition at 10000 µg/mL (Sacchromyces cerevisae) of 20 mm, an MIC (Candida albicans; C. albicans strain 28516 (Table 3), read-out: Antifungal MIC) of 0.25 µg/mL (≈ 0.346 µM) and an MIC (Candida albicans; C. albicans strain 28815 (Table 3), read-out: Antifungal MIC) of 0.125 µg/mL (≈ 0.173 µM). It also gave an MIC (Candida albicans; C. albicans strain 44203 (Table 3), read-out: Antifungal MIC) of 0.05 µg/mL (≈ 0.0693 µM), an MIC (Candida albicans; C. albicans strain 44373 (Table 3), read-out: Antifungal MIC) of 0.25 µg/mL (≈ 0.346 µM) and an MIC (Candida albicans; [5]) of 0.05 µg/mL (≈ 0.0693 µM). It also gave an MIC (Cr. neoformens) of 0.78 µg/mL (≈ 1.08 µM), an MIC (S. cerevisae) of 0.195 µg/mL (≈ 0.27 µM) and an MIC (A. fumigatis) of 0.137 µg/mL (≈ 0.19 µM). It also gave a solubility [3] of 0.045 µg/mL (≈ 0.0624 µM) and a selectivity ratio (cytochrome P450 3A4 [2]) of 7.4.
Work on `CC[C@@H](C)n1ncn(-c2ccc(N3CCN(c4ccc(OC[C@H]5CO[C@](Cn6cncn6)(c6ccc(Cl)cc6Cl)O5)cc4)CC3)cc2)c1=O` [Compound 6, reference compound] yielded an MIC (Candida albicans) of 0.312 µg/mL (≈ 0.443 µM).
For `CC[C@H](C)n1ncn(-c2ccc(N3CCN(c4ccc(OC[C@H]5CO[C@](Cn6cncn6)(c6ccc(Cl)cc6Cl)O5)cc4)CC3)cc2)c1=O` [Compound 5, reference compound], the MIC (Candida albicans) was 0.312 µg/mL (≈ 0.443 µM).
In the case of `CCN(CC)CCNC(=O)c1ccc(NC(C)=O)cc1` [acetyl-procainamide], the “Effect on cardiac repolarization” value (delayed rectifier (IK)) is given as “prolongation of cardiac repolarization” and the “Block of delayed rectifier (IK)” value (delayed rectifier (IK)) is given as “ability to block a cellular potassium channel called the delayed rectifier (IK)”.
